In patent publication US6441167B1, “Cinoxacin lanthanide chelates and their use as biomolecular probes” (SmithKline Beecham plc, priority 1998, dated 2002):
Each block holds one molecule with its values, some of them ahead of it.

Assays:
[1] = Excitation and emission spectra and time resolved fluorescence decays of Europium chelates; format: physicochemical
Procedure: Below are some typical excitation and emission spectra, alone with time resolved fluorescence decays for Europium chelates of this invention. All spectra and decay measurements were recorded on an Amino Bowman Spectrophotometer (model AB2), with a time resolution of 50 us.
The characteristic narrow emission bands of europium is observed at around 614 nm. The excitation spectrum for the 614 nm emission band peaks at 355 nm, and at least 50% of this intensity is achieved with excitation wavelengths up to 375 nm.
As with the vast majority of fluorescence compounds, the sensitiser group itself has a very short fluorescence lifetime. […] However, as is clearly shown by the decay traces the fluorescence of the Eu^3+ incorporated in the chelate (at 614 nm) has a characteristically long lifetime that enables a time-resolved discrimination between the Eu-containing chelate and other fluorescent compounds. The Eu fluorescence lifetime was fitted with a single exponential fit giving a lifetime of 633 us.

[2] = Time resolved fluorescence signal of streptavidin conjugate (Wallac Victor); format: physicochemical; conditions: 50 nM in 100 uL; 400 us delay, 400 us read, cycle time 1000 us
Procedure: The reaction mixtures (549 ul) were then desalted into phosphate buffered saline containing 0.05% Tween 20 (PBS/Tween, Sigma) and 500 ul fractions were collected and assayed for protein content (Coomassie Blue Reagent, Biorad). The concentration of the pooled fractions (2 ml, 14 uM) was determined by Coomassie staining using streptavidin as a standard. […] 50 nM Cin-DTPA-SA gave 10,000 counts per second in 100 uL using these conditions. Improved labelling conditions yielding brighter conjugates, were obtained by freshly dissolving the Cin-DTPA-APA-chlorotriazine in 100% DMSO, increasing the pH of the reaction mixture to 9.0 in Bicarbonate buffer, and increasing the reaction time to approximately 16 hours at 4° C.

[3] = tested on: Cy5-labelled peptides; experiment: Time resolved fluorescence resonance energy transfer from Cin-DTPA-SA to Cy5-labelled peptide; conditions: 100 nM Cin-DTPA-SA; saturating concentrations of Cy5-peptide; λex=340 nm
Procedure: Cin-DTPA-SA (100 nM) in PBS/Tween was mixed with increasing concentrations (0.1-1000 nM) of N-Succ-(Cy5-NH-K)AERAQAGVVNASSRLAE(K-NH-Biotin)-CO2H (where underlined letters refer to single amino acid codes) prepared by reaction of the corresponding unlabelled peptide with the N-hydroxysuccinimide esters of biotin and Cy5 (Amersham). After 30 minutes incubation at room temperature, the fluorescence intensity of the sample (λex=340 nm, λem=615 nm or 664 nm) was determined using a time gate of 400 us, 400 us read time, 1000 us cycle time for europium (615 nm) fluorescence and a time gate of 70 us, 200 us read time, 1000 us cycle time for Cy5 (664 nm) fluorescence. The 615 nm fluorescence decreased in a peptide concentration dependent manner by 62-67% at saturating concentrations of Cy5-peptide whilst the 664 nm fluorescence increased in a saturable manner from 1000 counts/second to 8,000 counts/second at saturating concentration of peptide. […] In addition, titration of 10 nM Cin-DTPA-SA with biotinylated allophycocyanin (Bt-APC, 0.5-500 nM, Sigma) in PBS/Tween was associated with an increase in the fluorescence signal at 664 nm from 1000 counts/second to 3,500 counts/second at 500 nM Bt-APC, again indicating energy transfer from the chelate to the acceptor.
The Eu^3+ fluorescence decreases and the Cy5 fluorescence increases as the Cy5-labelled peptide is titrated in. […]

- decay of the chromophore ([1]; at 430 nm, in the presence of Eu^3+): too fast for detection
Molecule: Cinoxacin-DTPA-Cinoxacin

Molecule: Cin-DTPA-SA: streptavidin labelled with Cinoxacin-DTPA-APA-chlorotriazene (D5) and loaded with Eu^3+
- time resolved fluorescence signal [2]: 10,000 counts per second
- decrease of 615 nm fluorescence [3]: 62-67%

- fluorescence lifetime of the chromophore ([1]; at 421 nm, time resolution 50 us): too short to be reliably detected
- Eu fluorescence lifetime ([1]; at 614 nm, single exponential fit): 633 us
- emission bands of europium ([1]; in the presence of Eu^3+): around 614 nm
- excitation spectrum peak for the 614 nm emission band ([1]; in the presence of Eu^3+): 355 nm
- excitation wavelengths at which at least 50% of peak intensity is achieved ([1]; in the presence of Eu^3+, 614 nm emission): up to 375 nm
Molecule: CCn1nc(C(=O)NCCNC(=O)CN(CCN(CCN(CC(=O)O)CC(=O)O)CC(=O)O)CC(=O)O)c(=O)c2cc3c(cc21)OCO3 [Cinoxacin-DTPA]
